# Test results as given in patent US20240124410A1, “SMALL MOLECULES AND THEIR USE AS MALT1 INHIBITORS” (University of Pittsburgh - Of the Commonwealth System of …, priority 2021, published 2024).
# pIC50: −log10 of the molar value.
# Columns and labels:
# HRH2 = target: T1, HRH2 (Homo sapiens, UniProt P25021); assay: Eurofins SAFETYscan 78-target panel, off-target effects, HRH2; type: biochemical; details: antagonist / blocker / inhibitor mode
# T1 construct: Eurofins
# Protocol: (§1) FIG. 9. Table summarizing the Eurofins analysis of potential off-target effects of M1i-124. […] values above 10 μM are generally considered to be acceptable. FIG. 10. Representative hematoxylin and eosin (H&E) staining of organ sections (lung, heart, kidney, liver and adrenal) from control and M1i-124 treated mice described in FIG. 6.
# (§2) Studies were performed using the services of Touchstone Biosciences and Eurofins Pharma Discovery Services. […] All blood samples (30-50 ul per sample) were taken via tail vein at 5, 15, and 30 minutes, and 1, 2, 4, 6, 8, and 24 hours after dosing. Blood samples are collected in Greiner MiniCollect K2 EDTA tubes, placed on ice, and within 30 minutes, centrifuged at 15,000 g for 5 minutes to obtain plasma samples. All plasma samples are stored at −70° C. until analysis. Plasma samples were prepared for analysis by LC-MS/MS, and key PK parameters, including terminal half-life (t 112), initial plasma concentration (C0), area under the plasma concentration vs. time curve (AUC), volume of distribution at steady-state (Vss), total plasma clearance (CLp), and mean residence time (MRT), were measured.
# (§3) Assay details are available through Eurofins.
# KvLQT1/minK = target: T2, KvLQT1/minK (Homo sapiens, UniProt P15382+P51787); assay: Eurofins SAFETYscan 78-target panel, off-target effects, KvLQT1/minK; type: biochemical; details: antagonist / blocker / inhibitor mode
# T2 construct: Eurofins
# Protocol: as §1, §2, §3
# [1] = system: T cell receptor (TCR)-induced phosphorylation of ERK; assay: Phosphorylation of ERK in Jurkat T cells (Western blot); type: cell-based; details: 20 hours pretreatment, anti-CD3/CD28 for 0-20 minutes
# Protocol: The DLBCL cell lines, OCI-Ly1, OCI-Ly3, and OCI-Ly7, were provided by Dr. Mark Minden (University Health Network, Toronto, Ontario, Canada). TMD8 cells were provided by Dr. Louis Staudt (NCI, NIH). OCI-Ly1 and OCI-Ly7 cells were cultured in Iscove's Modified Dulbecco's Medium (IMDM) supplemented with 10% FBS. OCI-Ly3 cells were cultured in IMDM supplemented with 20% FBS. TMD8 and Jurkat T cells were cultured in RPMI1640 medium with 10% FBS. HEK293T cells were cultured in DMEM medium with 10% FBS. All media were supplemented with 100 U/ml penicillin streptomycin. Stimulation of Jurkat cells was conducted by adding 5 ng/ml of phorbol 12-myristatel3 acetate (PMA)(Sigma-Aldrich) and 1μM ionomycin (Calbiochem), or by adding 5-10 μL/mL of ImmunoCult Human CD3/CD28 ([…] Technologies).
# OCI-Ly3 ABC-DLBCL cells = assay: Cell proliferation (cell count, trypan blue exclusion), OCI-Ly3; type: cell-based; details: OCI-Ly3, single dose of 1 μM, 12 days
# Source text: Cell number was counted using the trypan blue dye exclusion method with Vi-CELL cell viability analyzer (Beckman Coulter) at days 7, 10, and 12 of treatment with compounds. Cell proliferation was specifically evaluated using the CellTrace Violet reagent (ThermoFisher Cat #C34571) which undergoes dilution with each round of cell division. 1.5×10^6 cells were washed twice in PBS and resuspended in 2 mls of PBS.
# BCL10-MALT1 interaction = target: T3, BCL10-MALT1 interaction (Homo sapiens, UniProt Q9UDY8); assay: ELISA-based protein-protein interaction assay; type: binding; parameters: GST-tagged recombinant human full-length MALT1 protein (Novus Biologicals Cat #H00010892-P01); purchased Novus Biologicals H00010892-P01
# T3 sequence (Q9UDY8 1-824): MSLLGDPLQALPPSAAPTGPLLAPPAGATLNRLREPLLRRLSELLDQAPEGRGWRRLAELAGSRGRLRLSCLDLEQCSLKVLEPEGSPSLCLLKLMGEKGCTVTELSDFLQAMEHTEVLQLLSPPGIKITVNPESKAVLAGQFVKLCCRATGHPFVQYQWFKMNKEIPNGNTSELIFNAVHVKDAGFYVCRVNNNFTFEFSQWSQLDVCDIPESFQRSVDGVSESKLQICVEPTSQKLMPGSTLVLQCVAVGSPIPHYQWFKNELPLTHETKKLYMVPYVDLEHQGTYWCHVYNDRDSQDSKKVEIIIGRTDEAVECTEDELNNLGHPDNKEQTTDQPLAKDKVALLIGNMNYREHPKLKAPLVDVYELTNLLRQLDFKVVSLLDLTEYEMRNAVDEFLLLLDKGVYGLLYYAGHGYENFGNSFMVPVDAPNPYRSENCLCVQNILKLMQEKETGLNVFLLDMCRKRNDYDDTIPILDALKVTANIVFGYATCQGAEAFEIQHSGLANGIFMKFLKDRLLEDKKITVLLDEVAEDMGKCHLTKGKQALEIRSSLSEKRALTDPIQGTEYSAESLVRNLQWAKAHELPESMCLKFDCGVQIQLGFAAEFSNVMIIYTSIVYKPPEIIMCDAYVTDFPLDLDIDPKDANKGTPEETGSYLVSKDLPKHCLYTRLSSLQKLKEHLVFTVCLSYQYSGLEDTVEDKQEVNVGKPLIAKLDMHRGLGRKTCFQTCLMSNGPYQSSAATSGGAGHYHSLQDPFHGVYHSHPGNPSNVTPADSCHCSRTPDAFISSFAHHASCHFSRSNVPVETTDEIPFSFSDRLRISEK
# Protocol: On a high-binding 96-well ELISA microplate (Greiner Cat #655061), 100 ng of His-tagged recombinant human full-length Bcl10 protein (ProteinTech Cat #Ag12162) in 100 ul PBS was allowed to adhere overnight in 4° C. The plate was blocked with 5% BSA in PBS for 1 hour at room temperature. After washing twice with PBS-T, a mixture of 100 ng of GST-tagged recombinant human full-length MALT1 protein (Novus Biologicals Cat #H00010892-P01), +/−compound that was preincubated for 1 hour in 100 ul PBS, was added to the plate for 1 hour at room temperature. After washing three times with PBS-T, anti-MALT1 antibody in 5% BSA in PBS was added at 1:1000 dilution for 1 hour at room temperature. After washing three times with PBS-T, HRP-conjugated secondary antibody in 5% BSA in PBS was added at 1:5000 dilution for 1 hour at room temperature. After washing three times with PBS-T, 100 ul of TMB was added for 5 minutes, and 100 ul of 2 M sulfuric acid was added to stop the reaction. The plate was read at 450 nm using a spectrophotometer (Molecular Devices SpectraMax i3).
# T1 sequence (P25021 whole entry): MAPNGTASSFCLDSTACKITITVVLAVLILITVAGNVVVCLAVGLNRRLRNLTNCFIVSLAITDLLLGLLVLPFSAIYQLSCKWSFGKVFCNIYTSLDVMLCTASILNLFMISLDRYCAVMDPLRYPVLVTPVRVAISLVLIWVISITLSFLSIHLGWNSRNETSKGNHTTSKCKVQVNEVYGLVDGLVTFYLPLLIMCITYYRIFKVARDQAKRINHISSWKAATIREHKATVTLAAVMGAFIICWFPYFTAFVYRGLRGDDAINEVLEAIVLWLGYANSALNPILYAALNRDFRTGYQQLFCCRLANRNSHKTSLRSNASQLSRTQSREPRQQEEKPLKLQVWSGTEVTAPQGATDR
Compound,pIC50 (HRH2),pIC50 (KvLQT1/minK),Phosphorylation of ERK (phospho-ERK/total ERK) [1],Proliferation (OCI-Ly3 ABC-DLBCL cells),ELISA IC50 compared with parent compound M1i-124 (BCL10-MALT1 interaction),Disruption of the BCL10-MALT1 interaction by ELISA in the presence of tween (BCL10-MALT1 interaction; 0.005% tween)
O=S(=O)(NCc1ccc2c(c1)OCO2)c1ccc(Cc2ccc(S(=O)(=O)NCc3ccc4c(c3)OCO4)cc2)cc1 [M1i-124],5.64,5.74,–,–,–,–
COc1ccc(CNS(=O)(=O)c2ccc(Cc3ccc(S(=O)(=O)NCc4ccc(OC)cc4)cc3)cc2)cc1 [M1i-124d1],–,–,Neither M1i-124 (F) or M1i-124d1 (G) inhibits,inhibit the proliferation,lower IC50 as compared to parent compound,retain the ability to disrupt the BCL10-MALT1 interaction
